From patent US20150044717A1, “DEVICES AND METHODS FOR OBSERVING EUKARYOTIC CELLS WITHOUT CELL WALL” (CENTRE NATIONAL DE LA RECHERCHE SCIENTIFIQUE, priority 2012, published 2015) come the findings set out here.

The experiment concerns cytokinetic ring of HeLa cells. The experiment is described as follows: closure of the cytokinetic ring of cells in egg cups after addition of drugs (fluorescence microscopy). The conditions noted are these: for ring diameter as a function of time / closing speed: after addition of latrunculin A 1.5 μM. The class given is cell-based, human. On the procedure:
For the experiments, a human HeLa cell line was used. The cells were stably transfected with a plasmid coding for actin monomers tagged with GFP. Cells were cultured in a growth medium containing DMEM with 10% FCS and 2 mM of L-Glutamine. After replating cells, Geneticin (0.5 mg/ml) was added to the medium.
During the experiments, cells were cultured in L-15 with 10% FCS and 2 mM of L-Glutamine.
Synchronized cells were obtained by mitotic shake-off. To have a sufficient number of dividing cells, cells were cultured in flasks of 75 cm^2 surface. The flasks were tapped on a solid surface to detach loosely attached cells, which rounded up before undergoing division. Alternatively, cells were synchronized with classical protocols such as the thymidine block, mitotic block (both Whitfield M L, Mol. Cell. Biol. 2000, 20(12): 4188-4198) or monastrol incubation (Straight A F et al., Science. 2003, 299:1743-1747).
The coverslips with the egg cups were exposed to nitrogen plasma for 30 s and then incubated with a solution of fibronectin (20 μg/ml in phosphate buffered saline (PBS), Sigma Aldrich) for 1 h. The sample could be stored in PBS for some hours. A cylindrically shaped plastic piece was placed in a 50 ml tube. The tube was filled with 6.5 ml of growth medium. The egg cup coverslip was horizontally placed in a tube, supported by the plastic cylinder. The suspension of synchronized cells was added on top of the coverslip. The tube was centrifuged for 5 min at 4000 rpm. The coverslip was carefully removed from the tube and installed in a home-made metallic holder. L-15 medium with 10% FCS and 2 mM L-Glutamine was immediately added. During the experiment the holder was closed by a plastic cover to prevent evaporation.
The drugs were added immediately before the experiment. The inventors used a concentration of 1.5 μM latrunculin A (Sigma Aldrich) (Delanoc-Ayari H. et al., Phys. Rev. Lett. 2004, 93(10): 108102) and 100 μM (−)-blebbistatin (Sigma Aldrich) (Straight A F et al., Science. 2003, 299:1743-1747).
The objective was a Plan Apo 60× objective (oil, 1.40 NA, Nikon). The images were captured and processed with the NIS Elements software (v3.10, SP3, Nikon).

Where [1] appears, read: blebbistatin 100 μM, HeLa cells in egg cups.

Regarding `Cc1ccc2c(c1)C(=O)C1(O)CCN(c3ccccc3)C1=N2` (single isomer, unassigned; (-)) [Blebbistatin, (−)-blebbistatin], under setting [1], the “cell division (ring diameter as a function of time)” value was “slows down and stops the division”; the “closure of the cytokinetic ring” value is “the closure was slowed down and failed”.
As for `C/C1=C/C(=O)O[C@@H]2C[C@@H](CC[C@H](C)/C=C\C=C\CC1)O[C@@](O)([C@@H]1CSC(=O)N1)C2` [Latrunculin A, latrunculin A], the “ring diameter as a function of time / closing speed” value is, setting by setting: (HeLa cells in egg cups) “a slight increase in closing speed, then a slight expansion of the ring”; (HeLa cells in egg cups, listed as latrunculin A) “the speed is first slightly increasing, then the ring becomes larger again until the signal vanishes”. Also, the cell division result (in the presence of latrunculin A 1.5 μM, HeLa cells in egg cups) is given as “Cells did not divide”. In addition, the “closure of the cytokinetic ring” value (latrunculin A 1.5 μM, HeLa cells with GFP-actin in egg cups) is given as “the ring does not close completely”.
